Measurements reported in patent US11236106B2, “Cycloalkane-1,3-diamine derivative” (Daiichi Sankyo Company, Limited, priority 2018, dated 2022).
Where a name gives a salt, the structure may show the parent alone.

biological target: T1, menin and MLL (menin, Flag tagged; biotinylated MLL1 peptide 1-46aa) (Homo sapiens, UniProt O00255); experiment: biochemical; conditions: not given
T1 sequence (O00255 1-610): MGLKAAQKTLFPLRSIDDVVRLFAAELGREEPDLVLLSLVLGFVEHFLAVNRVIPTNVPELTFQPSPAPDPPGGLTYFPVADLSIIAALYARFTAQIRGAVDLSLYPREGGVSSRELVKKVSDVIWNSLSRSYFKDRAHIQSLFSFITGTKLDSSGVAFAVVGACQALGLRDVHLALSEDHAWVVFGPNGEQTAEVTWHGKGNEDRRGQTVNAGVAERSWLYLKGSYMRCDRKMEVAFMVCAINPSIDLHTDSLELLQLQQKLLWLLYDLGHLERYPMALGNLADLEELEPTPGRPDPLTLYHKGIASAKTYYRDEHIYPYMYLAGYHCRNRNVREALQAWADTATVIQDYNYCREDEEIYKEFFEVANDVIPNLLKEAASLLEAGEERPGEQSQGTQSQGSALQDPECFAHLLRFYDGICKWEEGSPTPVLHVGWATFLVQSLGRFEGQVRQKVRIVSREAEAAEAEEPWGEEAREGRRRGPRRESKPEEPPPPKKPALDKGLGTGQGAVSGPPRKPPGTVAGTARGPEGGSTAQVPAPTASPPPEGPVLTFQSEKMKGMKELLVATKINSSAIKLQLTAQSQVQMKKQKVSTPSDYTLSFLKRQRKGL

Compound | IC50 [nM]
COc1nc(N(C)[C@H]2C[C@@H](NCC3CC=C(c4cc(OC)c(OC)nn4)CC3)C[C@H]2O)c2cc(CC(F)(F)F)sc2n1 (mixture of isomers) [Example 125, (1R,2S,4R)-4-({[4-(5,6-dimethoxypyridazin-3-yl)cyclohex-3-en-1-yl]methyl}amino)-2-{[2-methoxy-6-(2,2,2-trifluoroethyl)thieno[2,3-d]pyrimidin-4-yl](methyl)amino}cyclopentan-1-ol hydrochloride] | 1.5
COCCOc1nnc(-c2ccc(CN[C@H]3C[C@@H](O)[C@@H](N(C)c4nc(OC)nc5sc(CC(F)(F)F)cc45)C3)cc2)cc1OC [Example 109, (1R,2S,4R)-4-[({4-[5-methoxy-6-(2-methoxyethoxy)pyridazin-3-yl]phenyl}methyl)amino]-2-{[2-methoxy-6-(2,2,2-trifluoroethyl)thieno[2,3-d]pyrimidin-4-yl](methyl)amino}cyclopentan-1-ol hydrochloride] | 0.7
COc1ncc(-c2ccc(CN[C@H]3C[C@@H](O)[C@@H](N(C)c4ncnc5sc(CC(F)(F)F)cc45)C3)cc2)nc1OC [Example 96, (1R,2S,4R)-4-({[4-(5,6-dimethoxypyrazin-2-yl)phenyl]methyl}amino)-2-{methyl[6-(2,2,2-trifluoroethyl)thieno[2,3-d]pyrimidin-4-yl]amino}cyclopentan-1-ol hydrochloride] | 2.7

same assay, conditions: IC50, binding inhibitory activity between menin and MLL, AlphaLISA; 1 nM menin, 10 nM biotinylated MLL1 peptide

Compound | IC50 [nM]
COc1cc(-c2ccc(CN[C@H]3C[C@@H](O)[C@@H](N(C)c4ncnc5sc(CC(F)(F)F)cc45)C3)c(C)c2)cnc1OC [Example 78, (1R,2S,4R)-4-({[4-(5,6-dimethoxypyridin-3-yl)-2-methylphenyl]methyl}amino)-2-{methyl[6-(2,2,2-trifluoroethyl)thieno[2,3-d]pyrimidin-4-yl]amino}cyclopentan-1-ol hydrochloride] | 8.5
COc1nc(N(C)[C@H]2C[C@@H](NCc3ccc(-c4cnc(OC)c(OC)c4)cc3)C[C@H]2O)c2cc(CC(F)(F)F)sc2n1 [Example 81, (1R,2S,4R)-4-({[4-(5,6-dimethoxypyridin-3-yl)phenyl]methyl}amino)-2-{[2-methoxy-6-(2,2,2-trifluoroethyl)thieno[2,3-d]pyrimidin-4-yl](methyl)amino}cyclopentan-1-ol hydrochloride] | 6.1
C=CC(=O)N(C)c1nnc(-c2ccc(CN[C@H]3C[C@@H](O)[C@@H](N(C)c4nc(OC)nc5sc(CC(F)(F)F)cc45)C3)cc2)cc1OC [Example 113, N-{6-[4-({[(1R,3R,4S)-3-hydroxy-4-{[2-methoxy-6(2,2,2-trifluoroethyl)thieno[2,3-d]pyrimidin-4-yl](methyl)amino}cyclopentyl]amino}methyl)phenyl]-4-methoxypyridazin-3-yl}-N-methylprop-2-enamide hydrochloride] | 29.2
COc1nc(N(C)[C@H]2C[C@@H](NCC3CCN(c4cc(OC)c(OC)nn4)CC3)C[C@H]2O)c2cc(CC(F)(F)F)sc2n1 [Example 115, (1R,2S,4R)-4-({[1-(5,6-dimethoxypyridazin-3-yl)piperidin-4-yl]methyl}amino)-2-{[2-methoxy-6-(2,2,2-trifluoroethyl)thieno[2,3-d]pyrimidin-4-yl](methyl)amino}cyclopentan-1-ol hydrochloride] | 10.9
CN(c1ncnc2sc(CC(F)(F)F)cc12)[C@@H]1CC[C@H](NCc2ccc(-c3cnc4c(c3)OCCO4)cc2)C1 [Example 63, (1R,3S)-N^3-{[4-(2,3-dihydro[l,4]dioxino[2,3-b]pyridin-7-yl)phenyl]methyl}-N^1-methyl-N^1-[6-(2,2,2-trifluoroethyl)thieno[2,3-d]pyrimidin-4-yl]cyclopentane-1,3-diamine hydrochloride] | 19.9
COc1cncc(-c2ccc(CN[C@H]3C[C@@H](O)[C@@H](N(C)c4ncnc5sc(CC(F)(F)F)cc45)C3)cc2)c1 [Example 129, (1R,2S,4R)-4-({[4-(5-methoxypyridin-3-yl)phenyl]methyl}amino)-2-{methyl[6-(2,2,2-trifluoroethyl)thieno[2,3-d]pyrimidin-4-yl]amino}cyclopentan-1-ol Hydrochloride] | 5.5
COc1nc(N(C)[C@H]2C[C@@H](NCc3ccc(-c4cc(OC)c(OC5CCN(S(C)(=O)=O)CC5)nn4)cc3)C[C@H]2O)c2cc(CC(F)(F)F)sc2n1 [Example 118, (1R,2S,4R)-4-({[4-(6-{[1-(methanesulfonyl)piperidin-4-yl]oxy}-5-methoxypyridazin-3-yl)phenyl]methyl}amino)-2-{[2-methoxy-6-(2,2,2-trifluoroethyl)thieno[2,3-d]pyrimidin-4-yl(methyl)amino}cyclopentan-1-ol hydrochloride] | 1
COc1nc(N(C)[C@H]2C[C@@H](NCc3ccc(-c4nnc(OC(F)F)cc4OC)cc3)C[C@H]2O)c2cc(CC(F)(F)F)sc2n1 [Example 110, (1R,2S,4R)-4-[({4-[6-(difluoromethoxy)-4-methoxypyridazin-3-yl]phenyl}methyl)amino]-2-{[2-methoxy-6-(2,2,2-trifluoroethyl)thieno[2,3-d]pyrimidin-4-yl](methyl)amino}cyclopentan-1-ol hydrochloride] | 2.1

same assay, conditions: cell free IC50 (nM), 1 nM menin, 10 nM biotinylated MLL1 peptide, AlphaLISA

Compound | IC50 [nM]
O=C1CCCN1Cc1ccc(CN[C@H]2CCC[C@@H](Nc3ncnc4sc(CC(F)(F)F)cc34)C2)cc1 [Example 38, 1-{[4-({[(1S,3R)-3-{[6-(2,2,2-trifluoroethyl)thieno[2,3-d]pyrimidin-4-yl[amino}cyclohexy]amino}methyl)phenyl]methyl}pyrrolidin-2-one hydrochloride] | 1850
CC(=O)Nc1ccc(CN[C@H]2CCC[C@@H](Nc3ncnc4sc(CC(F)(F)F)cc34)C2)cc1 [Example 29, N-[4-({[(1S,3R)-3-{[6-(2,2,2-trifluoroethyl)thieno[2,3-d]pyrimidin-4-yl]amino}cyclohexyl]amino}methyl)phenyl]acetamide hydrochloride] | 464
COc1cncc(-c2ccc(CN[C@@H]3C[C@H](N(C)c4ncnc5sc(CC(F)(F)F)cc45)[C@@H](O)[C@H]3O)cc2)c1 [Example 20B, (1R,2S,3R,5S)-3-({[4-(5-methoxypyridin-3-yl)phenyl]methyl}amino)-5-{methyl[6-(2,2,2-trifluoroethyl)thieno[2,3-d]pyrimidin-4-yl]amino}cyclopentane-1,2-diol Hydrochloride] | 16.4
CN(c1ncnc2sc(CC(F)(F)F)cc12)[C@@H]1CC[C@H](NCc2ccc(OCCN3CCOCC3)cc2)C1 [Example 30, (1R,3S)-N^1-methyl-N^3-({4-[2-(morpholin-4-yl)ethoxy]phenyl}methyl)-N^1-[6-(2,2,2-trifluoroethyl)thieno[2,3-d]pyrimidin-4-yl]cyclopentane-1,3-diamine hydrochloride] | 44.6
CNc1nc(N(C)[C@H]2C[C@@H](NCc3ccc(-c4cnc(OC)c(OC)c4)cc3)C[C@@H]2OC)c2cc(CC(F)(F)F)sc2n1 [Example 24, N^4-[(1S,2S,4R)-4-({[4-(5,6-dimethoxypyridin-3-yl)phenyl]methyl}amino)-2-methoxycyclopentyl]-N^2,N^4-dimethyl-6-(2,2,2-trifluoroethyl)thieno[2,3-d]pyrimidine-2,4-diamine Hydrochloride] | 4.1
CN(c1ncnc2sc(CC(F)(F)F)nc12)[C@@H]1CC[C@H](NCc2ccc3[nH]c(C#N)cc3c2)C1 [Example 3, 5-({[(1S,3R)-3-{methyl[2-(2,2,2-trifluoroethyl)[1,3]thiazolo[5,4-d]pyrimidin-7-yl]amino}cyclopentyl]amino}methyl)-1H-indole-2-carbonitrile Hydrochloride] | 81.8
C=CC(=O)Nc1cccc(Nc2ccc(CN[C@H]3CC[C@@H](N(C)c4nc(NC)nc5sc(CC(F)(F)F)cc45)C3)cc2)c1 [Example 55, N-{3-[4-({[(1S,3R)-3{methyl[2-(methylamino)-6-(2,2,2-trifluoroethyl)thieno[2,3-d]pyrimidin-4-yl]amino}cyclopentyl]amino}methyl)anilino]phenyl}prop-2-enamide hydrochloride] | 9.8
CN(c1ncnc2sc(CC(F)(F)F)cc12)[C@@H]1CC[C@H](NCc2ccc(-c3ccc(=O)[nH]c3)cc2)C1 [Example 11, 5-[4-({[(1S,3R)-3-{methyl[6-(2,2,2-trifluoroethyl)thieno[2,3-d]pyrimidin-4-yl]amino}cyclopentyl]amino}methyl)phenyl]pyridin-2(1H)-one Hydrochloride] | 63.9
CN(c1ncnc2sc(CC(F)(F)F)cc12)[C@@H]1CC[C@H](NCc2ccc(OCCO)c(F)c2)C1 [Example 31, 2-[2-fluoro-4-({[(1S,3R)-3-{methyl[6-(2,2,2-trifluoroethyl)thieno[2,3-d]pyrimidin-4-yl]amino}cyclopentyl]amino}methyl)phenoxy]ethan-1-ol hydrochloride] | 46.4
COc1cncc(-c2ccc(CN[C@H]3C[C@@H](O)C[C@@H](Nc4ncnc5sc(CC(F)(F)F)cc45)C3)cc2)c1 (single isomer, unassigned) [Example 15A, Hydrochloride] | 21.6
COc1cncc(-c2ccc(CN(C)[C@@H]3C[C@H](O)C[C@H](Nc4ncnc5sc(CC(F)(F)F)cc45)C3)cc2)c1 [Example 16, (1R,3S,5R)-3-[{[4-(5-methoxypyridin-3-yl)phenyl]methyl}(methyl)amino]-5-{[6-(2,2,2-trifluoroethyl)thieno[2,3-d]pyrimidin-4-yl]amino}cyclohexan-1-ol] | 1870
